From ChEMBL document CHEMBL1201862, “PubChem BioAssay data set” (2004)
Activity calls are given as the source filed them.

What was measured:
[1] = target: cAMP-dependent protein kinase catalytic subunit alpha (Homo sapiens, UniProt P17612); format: functional
[2] = target: 5'-AMP-activated protein kinase catalytic subunit alpha-1 (Homo sapiens, UniProt Q13131); format: functional
[3] = target: Calcium/calmodulin-dependent protein kinase type 1 (Homo sapiens, UniProt Q14012); format: functional
[4] = target: Ribosomal protein S6 kinase alpha-3 (Homo sapiens, UniProt P51812); format: functional;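 further: measured within a kinome-wide profiling panel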
[5] = target: Inhibitor of nuclear factor kappa-B kinase subunit beta (Homo sapiens, UniProt O14920); format: functional
[6] = target: Serine/threonine-protein kinase MRCK alpha (Homo sapiens, UniProt Q5VT25); format: functional
[7] = target: Casein kinase II subunit alpha (Homo sapiens, UniProt P68400); format: functional
[8] = inhibitors of intracellular T. cruzi replication, confirmation, NIH3T3 host cells, beta-gal luminescence (AID 2044); format: functional, cell-based;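 further: intracellular parasites grown in NIH/3T3 mouse fibroblasts as host cells; luminescent beta-galactosidase reporter signal from transgenic T. cruzi replicating inside host cells; inhibitors lower the luminescence signal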
[9] = cytotoxicity toward NIH3T3 fibroblasts, dose response, counter-screen, cell-based, ATP luminescence, mouse fibroblasts (AID 2010); format: functional;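 further: cells exposed to compound for about 90 hours before reading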
[10] = A Cell Based Secondary Assay to Explore Cytotoxicity in THP-1 Cells of Compounds that Modulate Mycobacterium tuberculosis in Media Containing Glycerol versus Media without Glycerol (2).; format: functional
[11] = microbe, parasite or virus in culture; format: functional; conditions: Mycobacterium tuberculosis
cells = format: functional
[12] = Vero cell cytotoxicity, cytotoxicity control for M. tuberculosis inhibitor project, purified and synthesized samples, set 3 (AID 504684); format: functional
[13] = THP-1 cell cytotoxicity, dose response, cytotoxicity control for non-replicating M. tuberculosis project (AID 489025); format: functional
[14] = A Cell Based Secondary Assay to Explore Cytotoxicity in HepG2 Cells of Compounds that Modulate Mycobacterium tuberculosis in Media Containing Glycerol versus Media without Glycerol (2).; format: functional
CHO-K1 = assay: (§1) Counterscreen for antagonists of the orexin 1 receptor (OX1R; HCRTR1): Homogeneous time resolved fluorescence (HTRF)-based cell-based dose response assay to identify antagonists of the parental CHO-K1 cell line. [Related pubchem assays (depositor defined):AID434989, AID435008, AID463079, AID485270, AID492963, AID492964, AID492965, AID493232, AID504699, AID504701]; format: functional; conditions: Cricetulus griseus
Orexin receptor type 2 [15] = target: T1, Orexin receptor type 2 (Homo sapiens, UniProt O43614); assay: Counterscreen assay for antagonists of the orexin 1 receptor (OX1R; HCRTR1): Homogeneous Time Resolved Fluorescence (HTRF)-based cell-based dose response assay for antagonists of the orexin 2 receptor (OX2R; HCRTR2), run by assay provider.; format: functional
[16] = target: T2, Orexin/Hypocretin receptor type 1 (Homo sapiens, UniProt O43613); assay: Homogeneous Time Resolved Fluorescence (HTRF)-based cell-based high throughput dose response assay for antagonists of the orexin 1 receptor (OX1R; HCRTR1). [Related pubchem assays (depositor defined):AID434989, AID435008, AID463079, AID485270, AID492963, AID492964, AID492965, AID493232, AID504717, AID504718]; format: functional
[17] = target: T2, Orexin/Hypocretin receptor type 1; assay: Fluorescence-based cell-based high throughput dose response assay for antagonists of the orexin 1 receptor (OX1R; HCRTR1). [Related pubchem assays (depositor defined):AID434989, AID435008, AID463079, AID485270, AID492963, AID492964, AID492965, AID493232, AID504717, AID504718]; format: functional
Orexin receptor type 2 [18] = target: T1, Orexin receptor type 2; assay: Counterscreen assay for antagonists of the orexin 1 receptor (OX1R; HCRTR1): Fluorescence-based cell-based dose response assay for antagonists of the orexin 2 receptor (OX2R; HCRTR2), run by assay provider.; format: functional
[19] = as §1, with “Fluorescence-based” for “Homogeneous time resolved fluorescence (HTRF)-based”, “cell-based high throughput” for “cell-based”, “CHO” for “CHO-K1”; format: functional
[20] = HepG2 cell cytotoxicity, dose response, cytotoxicity control for Shn3 inhibitor project, CellTiter-Glo, cherry-picked (AID 624134); format: functional, cell-based
[21] = target: T3, High affinity choline transporter 1 (Homo sapiens, UniProt Q9GZV3); assay: CHT activators, dose response, cell-based, 10-point CRC, membrane potential dye (AID 602376); format: functional
T3 sequence (Q9GZV3 whole entry): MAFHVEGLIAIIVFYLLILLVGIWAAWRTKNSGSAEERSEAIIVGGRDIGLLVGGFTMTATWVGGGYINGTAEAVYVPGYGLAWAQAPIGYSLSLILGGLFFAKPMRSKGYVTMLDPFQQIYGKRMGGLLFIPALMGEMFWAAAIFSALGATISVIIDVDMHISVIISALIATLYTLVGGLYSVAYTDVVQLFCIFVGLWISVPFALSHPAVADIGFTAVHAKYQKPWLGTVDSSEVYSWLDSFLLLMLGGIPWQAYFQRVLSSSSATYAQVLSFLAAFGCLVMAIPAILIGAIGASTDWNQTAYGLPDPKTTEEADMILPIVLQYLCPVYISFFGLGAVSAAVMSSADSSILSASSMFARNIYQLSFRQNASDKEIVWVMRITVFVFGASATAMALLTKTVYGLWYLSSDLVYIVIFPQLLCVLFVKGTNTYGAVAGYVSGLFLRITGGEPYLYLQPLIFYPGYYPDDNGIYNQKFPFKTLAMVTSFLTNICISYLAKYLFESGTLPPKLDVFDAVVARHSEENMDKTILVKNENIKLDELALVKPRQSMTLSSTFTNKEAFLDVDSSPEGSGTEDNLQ

HEK293 [22] = assay: SAR Analysis of small molecule inhibitors of both B-cell and T-cell specific antigen receptor-induced NF-kB activation in a HEK-293T cell line using a luminescence assay. [Related pubchem assays (depositor defined):AID435003, AID435022, AID465, AID489019, AID489029]; format: functional, cell-based; conditions: Homo sapiens
HEK293 [23] = assay: cytotoxicity in HEK293T NF-kB-Luc cells, SAR follow-up, cytotoxicity control for NF-kB activator project, cell-based, resazurin fluorescence (AID 493251); format: functional; conditions: Homo sapiens
Jurkat = assay: SAR Analysis of small molecule inhibitors of both B-cell and T-cell specific antigen receptor-induced NF-kB activation in a Jurkat cell line using a luminescence assay. [Related pubchem assays (depositor defined):AID435003, AID435022, AID465, AID489029]; format: functional, cell-based; conditions: Homo sapiens

T1 sequence (O43614 whole entry): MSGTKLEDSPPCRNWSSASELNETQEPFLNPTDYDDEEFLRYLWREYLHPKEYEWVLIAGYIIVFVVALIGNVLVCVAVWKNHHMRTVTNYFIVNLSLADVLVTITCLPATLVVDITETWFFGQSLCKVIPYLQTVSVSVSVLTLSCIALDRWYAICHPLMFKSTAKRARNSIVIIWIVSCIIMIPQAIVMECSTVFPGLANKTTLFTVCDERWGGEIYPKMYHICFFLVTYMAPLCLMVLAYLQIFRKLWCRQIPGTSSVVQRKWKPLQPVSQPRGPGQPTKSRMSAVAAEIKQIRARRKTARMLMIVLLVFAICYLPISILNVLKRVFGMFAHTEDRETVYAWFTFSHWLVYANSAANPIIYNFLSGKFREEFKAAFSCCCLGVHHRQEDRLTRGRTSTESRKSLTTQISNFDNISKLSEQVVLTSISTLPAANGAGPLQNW
T2 sequence (O43613 whole entry): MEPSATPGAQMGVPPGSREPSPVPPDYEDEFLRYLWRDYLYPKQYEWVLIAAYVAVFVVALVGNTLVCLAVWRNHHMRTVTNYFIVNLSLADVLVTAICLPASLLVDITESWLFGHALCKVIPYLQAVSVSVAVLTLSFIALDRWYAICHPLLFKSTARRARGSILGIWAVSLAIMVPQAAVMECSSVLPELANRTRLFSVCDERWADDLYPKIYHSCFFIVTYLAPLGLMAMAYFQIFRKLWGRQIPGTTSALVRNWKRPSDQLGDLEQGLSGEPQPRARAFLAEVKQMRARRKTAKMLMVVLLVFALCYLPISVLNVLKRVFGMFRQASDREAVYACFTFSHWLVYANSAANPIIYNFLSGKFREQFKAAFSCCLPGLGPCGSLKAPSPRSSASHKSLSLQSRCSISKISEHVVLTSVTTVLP
Chain of Serine/threonine-protein kinase MRCK alpha (Q5VT25 whole entry): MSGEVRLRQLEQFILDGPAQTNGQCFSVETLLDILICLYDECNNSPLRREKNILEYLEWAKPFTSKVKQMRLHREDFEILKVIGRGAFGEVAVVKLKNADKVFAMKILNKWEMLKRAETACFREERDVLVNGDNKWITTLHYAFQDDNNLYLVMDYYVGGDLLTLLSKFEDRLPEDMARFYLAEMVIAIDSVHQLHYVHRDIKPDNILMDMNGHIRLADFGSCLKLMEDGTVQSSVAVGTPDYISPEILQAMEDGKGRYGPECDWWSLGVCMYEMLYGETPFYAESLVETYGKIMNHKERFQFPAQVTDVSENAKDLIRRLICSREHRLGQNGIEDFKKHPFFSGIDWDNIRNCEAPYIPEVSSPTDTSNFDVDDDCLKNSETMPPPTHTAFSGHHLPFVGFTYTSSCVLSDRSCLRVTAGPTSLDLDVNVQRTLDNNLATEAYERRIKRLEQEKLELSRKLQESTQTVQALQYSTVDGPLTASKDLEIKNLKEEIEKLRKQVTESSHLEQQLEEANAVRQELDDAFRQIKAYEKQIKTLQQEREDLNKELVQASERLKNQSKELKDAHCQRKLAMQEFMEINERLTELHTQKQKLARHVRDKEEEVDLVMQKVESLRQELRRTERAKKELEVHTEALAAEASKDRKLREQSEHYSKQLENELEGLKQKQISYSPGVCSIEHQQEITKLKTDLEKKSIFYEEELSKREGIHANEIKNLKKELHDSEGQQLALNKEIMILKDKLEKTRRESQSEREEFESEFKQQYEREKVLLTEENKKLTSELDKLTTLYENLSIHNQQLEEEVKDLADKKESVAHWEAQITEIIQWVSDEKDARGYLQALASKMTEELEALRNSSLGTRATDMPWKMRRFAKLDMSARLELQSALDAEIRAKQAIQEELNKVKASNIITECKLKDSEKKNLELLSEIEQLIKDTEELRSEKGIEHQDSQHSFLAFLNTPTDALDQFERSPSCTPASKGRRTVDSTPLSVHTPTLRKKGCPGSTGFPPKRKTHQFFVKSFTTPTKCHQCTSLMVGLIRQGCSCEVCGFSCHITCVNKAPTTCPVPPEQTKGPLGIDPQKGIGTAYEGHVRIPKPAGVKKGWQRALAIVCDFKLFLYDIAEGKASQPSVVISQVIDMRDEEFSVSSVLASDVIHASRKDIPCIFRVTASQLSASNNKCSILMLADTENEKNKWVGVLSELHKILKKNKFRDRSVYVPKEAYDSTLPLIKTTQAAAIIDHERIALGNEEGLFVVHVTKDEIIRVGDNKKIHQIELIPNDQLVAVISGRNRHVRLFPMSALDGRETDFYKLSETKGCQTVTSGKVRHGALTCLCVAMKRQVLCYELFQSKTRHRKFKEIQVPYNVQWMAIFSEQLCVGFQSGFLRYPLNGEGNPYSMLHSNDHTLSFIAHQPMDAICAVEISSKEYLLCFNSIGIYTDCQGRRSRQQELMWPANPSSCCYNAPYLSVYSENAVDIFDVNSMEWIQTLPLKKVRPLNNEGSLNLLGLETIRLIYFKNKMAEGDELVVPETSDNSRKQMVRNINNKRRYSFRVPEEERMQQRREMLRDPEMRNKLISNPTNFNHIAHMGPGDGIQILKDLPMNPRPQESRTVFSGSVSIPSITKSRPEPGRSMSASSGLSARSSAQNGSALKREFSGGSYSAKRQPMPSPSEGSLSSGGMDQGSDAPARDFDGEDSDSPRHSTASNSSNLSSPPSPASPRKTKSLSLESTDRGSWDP
Chain of Calcium/calmodulin-dependent protein kinase type 1 (Q14012 whole entry): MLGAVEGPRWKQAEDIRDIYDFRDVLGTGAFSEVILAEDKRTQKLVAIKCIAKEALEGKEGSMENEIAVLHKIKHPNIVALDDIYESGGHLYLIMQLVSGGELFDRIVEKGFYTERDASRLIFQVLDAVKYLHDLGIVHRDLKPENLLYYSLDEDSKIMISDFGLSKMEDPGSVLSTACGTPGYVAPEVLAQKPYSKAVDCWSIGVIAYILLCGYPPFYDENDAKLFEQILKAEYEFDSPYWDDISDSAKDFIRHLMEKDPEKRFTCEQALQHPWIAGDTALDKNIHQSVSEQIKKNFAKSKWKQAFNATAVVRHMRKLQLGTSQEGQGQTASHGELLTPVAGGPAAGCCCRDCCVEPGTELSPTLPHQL
Chain of Ribosomal protein S6 kinase alpha-3 (P51812 whole entry): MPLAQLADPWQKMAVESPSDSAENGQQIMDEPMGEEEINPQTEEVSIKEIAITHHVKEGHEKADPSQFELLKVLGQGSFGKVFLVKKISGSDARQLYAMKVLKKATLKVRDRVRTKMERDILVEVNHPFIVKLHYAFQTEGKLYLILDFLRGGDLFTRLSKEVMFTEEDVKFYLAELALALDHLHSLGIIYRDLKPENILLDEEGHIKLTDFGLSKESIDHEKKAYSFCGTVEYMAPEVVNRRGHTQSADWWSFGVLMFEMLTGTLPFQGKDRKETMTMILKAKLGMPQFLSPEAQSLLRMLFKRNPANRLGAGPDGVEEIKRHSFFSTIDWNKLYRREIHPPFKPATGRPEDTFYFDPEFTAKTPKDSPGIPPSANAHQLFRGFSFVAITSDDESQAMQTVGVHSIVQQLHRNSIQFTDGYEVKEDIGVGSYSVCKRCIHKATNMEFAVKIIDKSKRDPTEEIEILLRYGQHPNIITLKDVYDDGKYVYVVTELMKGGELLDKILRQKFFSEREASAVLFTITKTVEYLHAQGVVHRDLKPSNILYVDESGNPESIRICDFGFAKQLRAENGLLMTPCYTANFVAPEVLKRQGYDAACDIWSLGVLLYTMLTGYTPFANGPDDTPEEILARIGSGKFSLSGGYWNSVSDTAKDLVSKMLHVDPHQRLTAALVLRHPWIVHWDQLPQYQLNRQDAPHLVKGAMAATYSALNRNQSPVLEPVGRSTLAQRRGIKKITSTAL
Chain of 5'-AMP-activated protein kinase catalytic subunit alpha-1 (Q13131 whole entry): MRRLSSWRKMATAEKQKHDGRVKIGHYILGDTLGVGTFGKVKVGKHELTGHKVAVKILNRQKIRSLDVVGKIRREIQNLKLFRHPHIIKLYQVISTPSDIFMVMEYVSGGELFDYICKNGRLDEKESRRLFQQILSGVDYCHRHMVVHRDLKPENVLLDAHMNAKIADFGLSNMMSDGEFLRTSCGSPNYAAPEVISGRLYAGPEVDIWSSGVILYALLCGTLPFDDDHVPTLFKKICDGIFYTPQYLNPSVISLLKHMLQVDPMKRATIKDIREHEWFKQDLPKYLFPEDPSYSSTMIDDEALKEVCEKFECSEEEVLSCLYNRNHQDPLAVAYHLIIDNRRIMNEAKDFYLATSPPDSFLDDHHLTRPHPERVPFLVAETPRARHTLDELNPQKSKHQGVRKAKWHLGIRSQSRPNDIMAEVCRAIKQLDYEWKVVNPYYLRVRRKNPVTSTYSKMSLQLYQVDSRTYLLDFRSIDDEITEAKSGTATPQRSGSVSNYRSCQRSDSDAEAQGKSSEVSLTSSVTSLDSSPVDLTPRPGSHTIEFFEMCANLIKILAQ
Chain of Casein kinase II subunit alpha (P68400 whole entry): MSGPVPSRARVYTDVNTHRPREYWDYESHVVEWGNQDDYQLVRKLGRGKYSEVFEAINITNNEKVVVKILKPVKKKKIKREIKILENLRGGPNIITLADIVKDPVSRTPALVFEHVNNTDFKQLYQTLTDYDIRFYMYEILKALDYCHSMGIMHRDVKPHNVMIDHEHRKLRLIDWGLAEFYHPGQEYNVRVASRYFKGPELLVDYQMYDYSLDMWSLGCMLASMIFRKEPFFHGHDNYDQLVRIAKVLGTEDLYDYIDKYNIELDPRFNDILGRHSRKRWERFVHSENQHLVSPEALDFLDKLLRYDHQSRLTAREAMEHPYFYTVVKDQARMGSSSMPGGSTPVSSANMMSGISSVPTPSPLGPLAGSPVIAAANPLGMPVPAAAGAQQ

With `NCCn1cc(-c2cc(-c3cc4ccccc4s3)c3[nH]ncc3c2)c2nc(N)ncc21` the Ki [1] was 0.0501 µM (active), the Ki [2] was 0.398 µM (active) and the Ki [3] was > 7.94 µM (inactive). The Ki [4] was 3.16 µM (active), the Ki [5] was 0.251 µM (active) and the Ki [6] was 3.16 µM (active). The Ki [7] was > 6.31 µM (inactive).
In the case of `O=C(NCC(c1cccs1)N1CCOCC1)c1cc([N+](=O)[O-])cc([N+](=O)[O-])c1` (stereo unspecified), the EC50 [8] is reported as 0.726 µM (active), the EC50 [9] is reported as > 60 µM (not active) and the CC50 [10] is reported as 69 µM (active). For the same molecule, the CC50 [11] was > 40 µM (active), the IC50 (cells) was 1.37 µM (active) and the CC50 [12] was 44.4 µM (active). For the same molecule, the CC50 [13] was > 40 µM (active) and the CC50 [14] was > 50 µM (active).
For `O=C(NC(Cc1c[nH]c2ccccc12)C(=O)N/N=C/c1ccc(Br)cc1)c1cccs1` (stereo unspecified), the IC50 (CHO-K1) was > 66.2 µM (inactive), the IC50 (Orexin receptor type 2 [15]) was 11.1 µM (inactive) and the IC50 [16] was 2.99 µM (active). For the same molecule, the IC50 [17] was 7.4 µM (active), the IC50 (Orexin receptor type 2 [18]) was 14.3 µM (inactive) and the IC50 [19] was > 49.8 µM (inactive).
For `C[C@@H]1CC=C[C@H]2[C@H]1C(=O)N(Cc1ccccc1)[C@H]2c1cccc([N+](=O)[O-])c1`, the AC50 [20] was 58.9 µM (active) and the EC50 [21] was 22.7 µM (active).
In the case of `Cc1ccc(S(=O)(=O)Nc2cccc3ccc(C)nc23)cc1`, the IC50 (HEK293 [22]) is reported as > 79 µM (inactive), the IC50 (HEK293 [23]) is reported as > 80 µM (inactive) and the IC50 (Jurkat) is reported as 1.79 µM (active).
